Marks after values point to notes of the source that are not given here.
Tests used:
Type in all cases: in vivo, rhesus monkeys
[1] = test system: α-syn; assay: α-Synucleinopathy in the nigra of hemiparkinsonian monkeys (TH and α-syn double-labeling); conditions: oral 1 mg/kg body wt/d for 30 d
Source text: FIG. 5 (A-C). […] Naïve female rhesus monkeys received a right intracarotid injection of MPTP. […] MPTP group of monkeys also received normal banana as control. After 30 d of treatment, nigral (A) sections were double-labeled for TH and α-syn. Total area (B) and integrated density (C) of α-syn bodies were quantified in two sections (two images per section) of each of four monkeys per group. ap<0.001 vs control (MPTP-intact); bp<0.001 vs MPTP-lesion.
(§1) Female rhesus monkeys (6-8 years old; 5-7 kg) were used in this study. All animals were singly housed with a 12-h light/dark cycle. Purine monkey chow and water were available ad libitum. Diets were supplemented with fruit during the testing sessions. The study was performed in accordance with federal guidelines of proper animal care and with the approval of the IACUC. Monkeys were intoxicated with MPTP according to protocol described previously (12-16). Briefly, animals were tranquilized with ketamine (10 mg/kg, i.m.) and then maintained on an anesthetic plane with isoflurane (1-2%). The animals were put in the supine position. […]
(§2) At the end point, monkeys were anesthetized with pentobarbital (25 mg/kg intravenously) and killed via perfusion with 0.9% saline. […] These punches were processed for HPLC analysis (for quantification of neurotransmitters). […]

[2] = test system: hemiparkinsonian monkeys; assay: Behavioral analysis: parkinsonian rating scale (PD scale) and hand reaching task in hemiparkinsonian monkeys
Description: Female rhesus monkeys (6-8 years old; 5-7 kg) were used in this study. All animals were singly housed with a 12-h light/dark cycle. Purine monkey chow and water were available ad libitum. Diets were supplemented with fruit during the testing sessions. The study was performed in accordance with federal guidelines of proper animal care and with the approval of the IACUC. Monkeys were intoxicated with MPTP according to protocol described previously (12-16). Briefly, animals were tranquilized with ketamine (10 mg/kg, i.m.) and then maintained on an anesthetic plane with isoflurane (1-2%). The animals were put in the supine position. For each injection, a right-sided incision was made along the medial edge of the sternocleidomastoid muscle. The carotid sheath was opened and the common carotid artery, internal jugular vein, and vagus nerves were identified. The common carotid was exposed below the carotid bifurcation. The external carotid artery was then ligated. A 27 gauge butterfly needle was inserted into the common carotid artery in a direction retrograde to blood flow; for each injection, 20 ml of saline containing 3 mg of MPTP-HCl (Sigma) was infused at a rate of 1.33 ml/min (15 min). After the infusion was completed, 3 ml of saline was delivered, and then the incision was closed.
Monkeys displaying hemiparkinsonian symptoms 7 d after the first intracarotid injection were included in the study. […] The control group of hemiparkinsonian monkeys (n=4) received only banana as vehicle.
The animals were trained to a consistent level of performance before intracarotid injection of MPTP. Monkeys were rated thrice a week by an investigator blind to the treatment groups using a parkinsonian rating scale (PD scale) utilized to quantify the clinical status of the monkeys (13-16). The scale included ratings of 10 parkinsonian features (tremor, posture, locomotion, hypokinesia, bradykinesia, balance, fine and gross motor skills, startle response, and freezing). Each test consisted of twelve total trials alternating between arms, six per side. Delaying feeding time until after the task was completed ensured animals' compliance with the test. Data collected included the time taken for the animal to move its hand into the chamber where the fruit was located (reaction time), the time taken to pick up the fruit while the hand was in the chamber (reception time) and the total time taken to move the hand into the chamber, retrieve the fruit and bring the hand back out of the panel and into the cage (total time).
All values are expressed as means±SEM. Differences among means were analyzed by one-way ANOVA or Kruskal-Wallis test (comparison among all groups) and post-hoc pair-wise comparison. In other cases, two sample t tests were also used to compare control vs MPTP and MPTP vs MPTP+maraviroc. For behavioral analysis, one way repeated measure ANOVA models were used. Pair-wise comparisons were conducted with Bonferroni adjustment.

[3] = test system: iNOS, Iba1-positive microglia, GFAP-positive astrocytes in the SNpc; assay: Glial inflammation in the SNpc of hemiparkinsonian monkeys (Iba1, GFAP, iNOS immunofluorescence); conditions: oral 1 mg/kg body wt/d for 30 d
Source text: FIG. 4 (A-E). […] After 30 d of treatment, nigral sections were double-labeled for Iba1 and iNOS (A) and GFAP and iNOS (B). Cells positive for Iba1 (C), GFAP (D) and iNOS (E) were counted using the olympus microsuite V software in two nigral sections (two images per slide) of each of four monkeys (n=4) per group. ap<0.001 vs. control; bp<0.001 vs MPTP; ns, not significant vs MPTP.
as §1, with “position. For each injection, a right-sided incision was made along the medial edge of the sternocleidomastoid muscle.” for “position.”
For immunofluorescence staining, anti-Iba-1 antibody (1:500), anti-iNOS antibody (1:1000), and anti-GFAP antibody (1:1000) were used. The samples were mounted and observed under an Olympus IX81 fluorescence microscope as described before (17-19).

[4] = test system: TH-positive dopaminergic neurons and fibers; assay: TH immunostaining: dopaminergic neurons in the SNpc (stereology) and striatal TH fibers (optical density); conditions: oral 1 mg/kg body wt/d for 30 d, lesion side
Description: FIG. 6 (A-C). Oral maraviroc treatment protects dopaminergic neurons in the SNpc of hemiparkinsonian monkeys. Naïve female rhesus monkeys received a right intracarotid injection of MPTP. […] MPTP group of monkeys also received normal banana as control. A) After 30 d of treatment, nigral sections were immunostained for TH. B) A magnified image of TH-stained SNpc is shown. […] All counting were performed by a single investigator blinded to the experimental conditions. ap<0.001 vs MPTP-intact; bp<0.01 vs MPTP-lesion.
FIG. 7 (A-B). Oral maraviroc treatment protects THir fibers in the striatum of hemiparkinsonian monkeys. Naïve female rhesus monkeys received a right intracarotid injection of MPTP. […] MPTP group of monkeys also received normal banana as control. A) After 30 d of treatment, striatal sections were immunostained for TH. B) Optical density of TH fibers in caudate and putamen was calculated by digital image analysis. Six different striatal sections of each monkey were analyzed. ap<0.001 vs MPTP-intact; bp<0.01 vs MPTP-Caudate-lesion; cp<0.01 vs MPTP-Putamen-lesion.
Female rhesus monkeys (6-8 years old; 5-7 kg) were used in this study. […]
as §2

[5] = test system: CD4+ and CD8+ T cells in the nigra; assay: Infiltration of CD4+ and CD8+ T cells into the nigra of hemiparkinsonian monkeys (immunostaining); conditions: oral 1 mg/kg body wt/d for 30 d from 7 d after MPTP; near blood vessel and in deep parenchyma of ventral midbrain
Source text: (§3) FIG. 2 (A-E). […] Naïve female rhesus monkeys received a right intracarotid injection of MPTP. […] MPTP group of monkeys also received normal banana as control. After 30 d of treatment, ventral midbrain sections were DAB-stained for CD4 (A, vessel; B, parenchyma). C) Sections were double-labeled for CD4 and TH. CD4-positive cells were counted in two nigral sections (D, within 100 μm around vessel; E, parenchyma within 100 to 200 μm around vessel) of each of four monkeys (n=4) per group. ap<0.001 vs. control; bp<0.01 vs. MPTP. Control represents the intact side of MPTP-intoxicated monkeys.
as §3, with “3 (A-D).” for “2 (A-E).”, “CD8” for “CD4”, “CD8-positive” for “C) Sections were double-labeled for CD4 and TH. CD4-positive”, “(C,” for “(D,”, “D,” for “E,”, “monkeys. […]” for “monkeys.”
as §2

[6] = test system: striatal dopamine, DOPAC and HVA; assay: HPLC analysis of striatal neurotransmitters in hemiparkinsonian monkeys; conditions: oral 1 mg/kg body wt/d for 30 d
Description: FIG. 8 (A-E). Maraviroc protects striatal dopamine in hemiparkinsonian monkeys. Naïve female rhesus monkeys received a right intracarotid injection of MPTP. […] MPTP group of monkeys also received normal banana as control. After 30 d of treatment, dopamine levels were measured in dorsomedial caudate (A), ventromedial caudate (B), dorsal putamen (C), ventral putamen (D), and nucleus accumbens (E). HPLC quantification of dopamine was performed by a single investigator blinded to the experimental conditions. Data are means±SEM of four monkeys per group. ap<0.001 vs MPTP-intact; bp<0.001 vs MPTP-lesion.
FIG. 9 (A-E). Maraviroc protects striatal DOPAC and HVA in hemiparkinsonian monkeys. Naïve female rhesus monkeys received a right intracarotid injection of MPTP. […] After 30 d of treatment, levels of DOPAC and HVA were measured in dorsomedial caudate (A), ventromedial caudate (B), dorsal putamen (C), ventral putamen (D), and nucleus accumbens (E). HPLC quantification of DOPAC and HVA was performed by a single investigator blinded to the experimental conditions. […]
as §2
Samples were analyzed for neurotransmitters by an investigator blind to the treatment groups. […]

[7] = PD scale score after treatment, 1 mg/kg body wt/d orally, mean ± SEM, four monkeys

Substance: maraviroc
- α-syn pathology in the SNpc [1]: almost missing
- Balance (0-3) [2, 7]: 0.57 ± 0.04^a
- Brady kinesia (0-5) [2, 7]: 0.85 ± 0.28^a
- Defense Reaction (0-2) [2, 7]: 0.24 ± 0.07^a
- Freezing (0-2) [2, 7]: 0.39 ± 0.03^a
- Gait (0-5) [2, 7]: 0.25 ± 0.03^a
- General (Gross) motor skills (0-3), L Hand [2, 7]: 0.89 ± 0.05
- General (Gross) motor skills (0-3), R Hand [2, 7]: 0.01 ± 0.00
- Posture (0-3) [2, 7]: 0.39 ± 0.04^a
- Tremor (0-3), L Hand [2, 7]: 0.42 ± 0.03^a
- Tremor (0-3), R Hand [2, 7]: 0.00 ± 0.00
- Total (Sum mean) ([2]; PD scale total score after treatment, 1 mg/kg body wt/d orally, mean ± SEM, four monkeys): 4.01 ± 0.40^a
- functional ability on clinical rating scale and operant motor test ([2]; oral 1 mg/kg body wt/d for 30 d): significantly improved
- motor deficits in a hand-reach task ([2]; oral maraviroc): reversed
- expression of iNOS protein in the SNpc [3]: reduced
- number of astrocytes and microglia in the SNpc ([3]; GFAP- and Iba1-positive cells): did not significantly reduce
- striatal TH fibers ([4]; caudate and putamen): significantly restored
- SNpc TH-positive neurons [4]: significantly restored
- infiltration of CD4+ T cells into the nigra [5]: significantly attenuated
- infiltration of CD8+ T cells into the nigra [5]: significantly attenuated
- levels of DOPAC and HVA in different parts of striatum [6]: restored
- DA in different parts of striatum ([6]; caudate, putamen, nucleus accumbens): pronounced preservation
